From ChEMBL document CHEMBL2417501, “Synthesis of 4-aminoquinoline-pyrimidine hybrids as potent antimalarials and their mode of action studies” (Eur J Med Chem, 2013)

What follows are molecules tested on Vaccinia virus (assay: Antiviral activity against Vaccinia virus infected in human HEL cells assessed as reduction of virus-induced cytopathogenicity). Conditions: Orthopoxvirus vaccinia.
Type: functional, organism-based

| SMILES | EC50 [µM] |
| --- | --- |
| Nc1ccn(C[C@@H](CO)OCP(=O)(O)O)c(=O)n1 [CIDOFOVIR] | 17 |
| Nc1nc2c(ncn2COCCO)c(=O)[nH]1 [ACYCLOVIR] | > 250 |
| CCOC(=O)c1c(C)nc(NCCCCNc2ccnc3cc(Cl)ccc23)nc1-c1ccc(F)cc1 | > 100 |
| COC(=O)c1c(C)nc(NCCCNc2ccnc3cc(Cl)ccc23)nc1-c1ccccc1 | > 20 |
| Cc1nc(NCCCCNc2ccnc3cc(Cl)ccc23)nc(-c2ccccc2)c1C(=O)OC(C)C | > 4 |
| CCOC(=O)c1c(C)nc(NCCCCNc2ccnc3cc(Cl)ccc23)nc1-c1ccc(Cl)cc1 | > 20 |
| CCOC(=O)c1c(C)nc(OCCCNc2ccnc3cc(Cl)ccc23)nc1-c1ccccc1 | > 100 |
| Nc1nc2c(ncn2COC(CO)CO)c(=O)[nH]1 [GANCICLOVIR] | > 100 |
| O=c1[nH]c(=O)n([C@H]2C[C@H](O)[C@@H](CO)O2)cc1/C=C/Br [BRIVUDINE] | 5 |
| CCOC(=O)c1cnc(NCCCCNc2ccnc3cc(Cl)ccc23)nc1C | > 100 |
| CCOC(=O)c1c(C)nc(NCCCCNc2ccnc3cc(Cl)ccc23)nc1-c1ccccc1[N+](=O)[O-] | > 4 |
